Laboratory results: ChEMBL document CHEMBL1201862, “PubChem BioAssay data set” (2004)
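These data come from cells grown in 96-well plates and exposed to compound for 48 hours at five concentrations. At the GI50, growth is halved.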 The source made the active and inactive calls. No stated cut-off is given here; in the data, active = GI50 up to about 1.1 µM and inactive = higher.

Tests used:
Assay in all cases: inhibition of tumour cell growth, NCI panel, 48 h
786-0 = tested on: 786-0
A498 = tested on: A498
COLO 205 = tested on: COLO 205
IGROV-1 = tested on: IGROV-1
LOX IMVI = tested on: LOX IMVI
OVCAR-4 = tested on: OVCAR-4
SF-268 = tested on: SF-268
SK-MEL-2 = tested on: SK-MEL-2
SK-MEL-5 = tested on: SK-MEL-5
SK-OV-3 = tested on: SK-OV-3
SN12C = tested on: SN12C
SNB-75 = tested on: SNB-75
SW-620 = tested on: SW-620
U-251 = tested on: U-251
UACC-62 = tested on: UACC-62
Malme-3M = tested on: Malme-3M
RXF 393 = tested on: RXF 393

Measured: GI50

COC(=O)c1c/c(=N\NC(=O)CC(=O)Nc2ccccc2OC)c2ccccc2o1
inactive: 786-0 66.4 µM | A498 > 100 µM | COLO 205 > 100 µM | IGROV-1 > 100 µM | LOX IMVI 66.8 µM | OVCAR-4 > 100 µM | SF-268 > 100 µM | SK-MEL-2 > 100 µM | SK-MEL-5 91.8 µM | SK-OV-3 > 100 µM | SN12C > 100 µM | SNB-75 > 100 µM | SW-620 > 100 µM | U-251 > 100 µM | UACC-62 > 100 µM

COC(=O)C1C(=O)N(CCc2c[nH]c3ccccc23)C[C@@H]2CCC(=O)C[C@H]12 (stereo partly specified)
inactive: 786-0 > 100 µM | A498 > 100 µM | COLO 205 > 100 µM | IGROV-1 > 100 µM | LOX IMVI > 100 µM | Malme-3M > 100 µM | OVCAR-4 > 100 µM | RXF 393 > 100 µM | SF-268 > 100 µM | SK-MEL-2 > 100 µM | SK-MEL-5 > 100 µM | SK-OV-3 > 100 µM | SN12C > 100 µM | SNB-75 > 100 µM | SW-620 > 100 µM | U-251 > 100 µM | UACC-62 > 100 µM

O=S(=O)(O)SC/C=C\CSS(=O)(=O)O
inactive: 786-0 > 100 µM | A498 > 100 µM | COLO 205 > 100 µM | IGROV-1 > 100 µM | LOX IMVI 24.8 µM | Malme-3M > 100 µM | OVCAR-4 > 100 µM | RXF 393 > 100 µM | SF-268 48.9 µM | SK-MEL-5 > 100 µM | SK-OV-3 57.8 µM | SN12C > 100 µM | SNB-75 60.4 µM | SW-620 > 100 µM | U-251 31.5 µM | UACC-62 > 100 µM

N=C(N)n1ncc(Cl)c(Cl)c1=O
inactive: 786-0 2.76 µM | A498 18.6 µM | COLO 205 1.88 µM | IGROV-1 11.1 µM | Malme-3M 2.21 µM | OVCAR-4 1.91 µM | SF-268 3.11 µM | SK-MEL-2 2.47 µM | SK-MEL-5 4.39 µM | SK-OV-3 17.9 µM | SN12C 2.69 µM | SNB-75 2.99 µM | SW-620 1.88 µM | U-251 7.11 µM | UACC-62 2.48 µM

N#Cc1ccc(OCCSCCCCCCCCCCSCCOc2ccc(C#N)cc2)cc1
inactive: 786-0 > 100 µM | A498 > 100 µM | COLO 205 > 100 µM | IGROV-1 > 100 µM | LOX IMVI > 100 µM | Malme-3M > 100 µM | RXF 393 > 100 µM | SF-268 > 100 µM | SK-MEL-2 > 100 µM | SK-MEL-5 3.03 µM | SK-OV-3 > 100 µM | SN12C > 100 µM | SNB-75 > 100 µM | SW-620 > 100 µM | U-251 > 100 µM | UACC-62 > 100 µM

CCOC(=O)c1cc(-c2cc(OC)c(OC)c([N+](=O)[O-])c2)c([N+](=O)[O-])n1C
inactive: 786-0 > 10 µM | IGROV-1 5.9 µM | Malme-3M 8.02 µM | OVCAR-4 > 10 µM | RXF 393 9.59 µM | SF-268 > 10 µM | SK-MEL-2 > 10 µM | SN12C 6.7 µM | SNB-75 > 10 µM | U-251 4.26 µM | UACC-62 3.53 µM

CCOC(=O)C(C)(C)Oc1ccc2c(=O)cc(-c3ccccc3)oc2c1
inactive: 786-0 16.3 µM | A498 > 100 µM | COLO 205 19.6 µM | IGROV-1 29.5 µM | LOX IMVI 17.5 µM | Malme-3M 22.9 µM | RXF 393 21.2 µM | SF-268 22.3 µM | SK-MEL-2 16.9 µM | SK-MEL-5 14.8 µM | SK-OV-3 > 100 µM | SN12C 32.1 µM | SNB-75 19.1 µM | SW-620 22.8 µM | U-251 18.2 µM | UACC-62 18.2 µM

CCOC(=O)C1N(S(=O)(=O)c2ccc(C)cc2)CCC12c1ccccc1N(C(C)=O)C2C(/C=C/C(=O)OC)=C/C(=O)OC (stereo unspecified)
inactive: 786-0 > 100 µM | A498 > 100 µM | COLO 205 > 100 µM | IGROV-1 > 100 µM | LOX IMVI > 100 µM | Malme-3M > 100 µM | OVCAR-4 > 100 µM | RXF 393 > 100 µM | SF-268 > 100 µM | SK-MEL-5 > 100 µM | SK-OV-3 > 100 µM | SN12C > 100 µM | SNB-75 > 100 µM | SW-620 > 100 µM | U-251 > 100 µM | UACC-62 > 100 µM

COC(=O)C(Cc1nc2ccccc2nc1O)C(NO)C(=O)Nc1c(Cl)cc([N+](=O)[O-])cc1Cl (stereo unspecified)
inactive: 786-0 40.6 µM | A498 21.4 µM | COLO 205 46.2 µM | IGROV-1 40.8 µM | Malme-3M 47.5 µM | OVCAR-4 38.5 µM | RXF 393 16.5 µM | SF-268 32.8 µM | SK-MEL-2 32.1 µM | SK-MEL-5 18 µM | SK-OV-3 37.9 µM | SN12C 45.3 µM | U-251 31.3 µM | UACC-62 18 µM
